Measurements as given in patent publication US20240050526A1, “CATH2 DERIVATIVES FOR STIMULATING INNATE IMMUNE MEMORY” (priority 2020, published 2024).
Ends that are not written are not given here.

What was measured:
Assay type in all cases: cell-based, human
dTHP-1 cells [1] = experiment: DCATH-2 training of dTHP-1 cells in the presence of pathway inhibitors; conditions: 1 μg/ml Pam3CSK4; for effect of inhibitor on DCATH-2 training (amplified Pam3CSK4-induced TNFα production): inhibitor 1 h before and during priming with 5 μM DCATH-2, 3 days rest; for Pam3CSK-induced TNFα production in the presence of inhibitor: reference level of FIG. 4a, means, SEM, 3 experiments
Experimental: (§1) THP-1 cells were cultured in Iscove Modified Dulbecco Media (IMDM, Gibco) containing Glutamax-I, sodium pyruvate, 10% fetal calf serum at 37° C. and 5% CO2. For differentiation to macrophage-like cells, THP-1 cells were grown in IMDM/FCS medium containing 8 of 100 nM PMA and seeded in 96 wells (5×10^4 cells/well), 24 wells (3×10^5 cells/well) or 6 wells plates (1×10^6 cells/well) during 48 h. Subsequently, dTHP-1 were washed with pre-warmed IMDM/FCS, left overnight to rest and primed during 1 to 24 h with 2-10 μM peptides of fresh IMDM/FCS medium, washed 3 times in medium. After 3 days rest cells were stimulated with various stimuli: S. minnesota LPS (10 ng/ml), E. coli LPS (10 or 50 ng/ml), Pam3CSK4 (1 μg/ml) or Pam2CSK4 (1 μg/ml). After 24 h supernatants were collected and stored at −20° C. For inhibition, dTHP-1 cells were pre-incubated for 1 h before priming and during priming with rapamycin (10 nM), AICAR (50 nM), metformin (0.3 mM), wortmannin (1 μM), ascorbate (50 μM), SB203580 (10 μM), PD98059 (10 μM), SP600125 (10 μM), EGCG (40 μM), anacardic acid (50 μM), curcumin (10 μM), garcinol (10 μM), Bay-11-7085 (10 μM), MTA (1 mM), MM-102 (25 μM), suramin (50 μM), KN-62 (3 μM), nystatin (10 μg/ml), and chlorpromazine (10 μM).
(§2) TNFα, IL-6, CXCL10 and CCL5 production were measured using ELISA (R&D systems) following instructions of the manufacturer.

dTHP-1 cells [2] = experiment: Confocal imaging of Tamra-labelled DCATH-2 uptake by dTHP-1 cells; conditions: 1 h pre-incubation with inhibitor, 3 h priming with Tamra-DCATH-2
Experimental: 3×10^5 dTHP-1 cells were seeded on 8 mm coverslips in 24 wells plates and differentiated for 48 h with 100 nM PMA in 0.5 ml medium. Wells were washed 3 times, and cells were primed for 3 h with Tamra-labelled DCATH-2 (TD) or medium. For inhibition conditions, cells were pre-incubated before priming for 1 h with 3 μM KN-62, 50 μM suramin, 10 μM chlorpromazine, or 10 μg/ml nystatin. After priming, coverslips were washed 3 times with warm medium and fixated for 30 min in 4% paraformaldehyde solution (0.1 M phosphate buffer, pH 7.4). After staining of nuclei with Hoechst (Molecular probes) for 10 min, coverslips were mounted on glass slides using ProLong glass antifade mountant (Thermofisher, P36980). Confocal images were acquired on a Leica SPE-II using the 100×HCX PLAN APO (NA=1.4-0.7) objective. Imaging was performed using a quadruple band beam splitter for the 561 nm laser. Visualization of Hoechst stained dTHP-1 cells was done with a 405 nm (100 mW) Coherent Violet Cube laser. Image analysis was done using composite images of both channels. In brief, regions of interest were set manually using DIC for segmentation. To isolate puncta from background noise, a threshold was set for the Tamra channel and intensity and area of puncta were measured partially automated using a script.

dTHP-1 cells [3] = experiment: Innate immune training of dTHP-1 cells by cathelicidin peptides, cytokine ELISA after TLR agonist re-stimulation; conditions: priming 24 h with 10 μM peptide; 100 nM PMA dTHP-1 cells; 3 days rest; re-stimulated with 10 ng/ml Salmonella minnesota LPS
Experimental: as §1, §2
Extrapolating from the trained immunity experiments with human monocytes, we examined if mature cathelicidin peptides could induce trained immunity in TH P-1 cells, a human monocyte cell line. TH P-1 cells were differentiated with 100 nM or 8 nM phorbol 12-myristate 13-acetate (PMA) during 48 h washed 3 times and, after overnight rest, primed with 2-10 μM of chicken cathelicidin 2 (CATH-2), its full D-analog DCATH-2 or human cathelicidin LL-37 for 24 h. Subsequently, dTHP-1 cells were washed 3 times and re-stimulated after a 3-day rest period with TLR agonists (24 h) (FIG. 1a). […] Priming with 5 μM of its full-D-amino acid analog DCATH-2 amplified 2- to 3-fold the TNFα and IL-6 production in response to LPS stimulation. A minor response was found for priming with 10 μM LL-37, which amplified IL-6 production 1.4-fold in 100 nM differentiated cells.

| Molecule | effect of inhibitor on DCATH-2 training (amplified Pam3CSK4-induced TNFα production) (dTHP-1 cells [1]) | other results |
| --- | --- | --- |
| NC(=O)c1ncn([C@@H]2O[C@H](COP(=O)(O)O)[C@@H](O)[C@H]2O)c1N [AICAR, 5-aminoimidazole-4-carboxamide ribonucleotide] | did not result in a significant reduction | Pam3CSK-induced TNFα production in the presence of inhibitor (dTHP-1 cells [1]): 335 ± 89 pg/mL |
| CC(C)(C)c1ccc(S(=O)(=O)/C=C/C#N)cc1 [Bay-11-7085] | did not impair |  |
| O=C(O[C@@H]1Cc2c(O)cc(O)cc2O[C@@H]1c1cc(O)c(O)c(O)c1)c1cc(O)c(O)c(O)c1 [EGCG, epigallocatechin gallate] | abrogated |  |
| CN([C@@H](Cc1ccc(OS(=O)(=O)c2cccc3cnccc23)cc1)C(=O)N1CCN(c2ccccc2)CC1)S(=O)(=O)c1cccc2cnccc12 [KN-62] | partially inhibited | effect of inhibitor on uptake of TAMRA-labelled DCATH-2 by dTHP-1 cells (dTHP-1 cells [2]): reduced uptake |
| CCC(CC)(NC(=O)C(C)C)C(=O)N[C@@H](CCCN=C(N)N)C(=O)NC1(C(=O)NC(c2ccc(F)cc2)c2ccc(F)cc2)CCCC1 [MM-102] | not affected |  |
| COc1cccc(-c2cc(=O)c3ccccc3o2)c1N [PD58059] | no effect |  |
| C[S+]([O-])c1ccc(-c2nc(-c3ccncc3)c(-c3ccc(F)cc3)[nH]2)cc1 (stereo not shown) [SB203580] | completely blocked |  |
| Oc1c2ccccc2c2c3c(cccc13)N=N2 [SP600125] | no effect |  |
| CCCCCCCCCCCCCCCc1cccc(O)c1C(=O)O [anacardic acid] | abrogated |  |
| O=C1O[C@H]([C@@H](O)CO)C(O)=C1O [ascorbate] |  | Pam3CSK-induced TNFα production in the presence of inhibitor (dTHP-1 cells [1]): 421 ± 112 pg/mL |
| CN(C)CCCN1c2ccccc2Sc2ccc(Cl)cc21 [chlorpromazin, chlorpromazine] | not affected | effect of inhibitor on uptake of TAMRA-labelled DCATH-2 by dTHP-1 cells (dTHP-1 cells [2]): not affected |
| COc1cc(/C=C/C(=O)CC(=O)/C=C/c2ccc(O)c(OC)c2)ccc1O [curcumin] | not by garcinol or curcumin |  |
| CN(C)C(=N)N=C(N)N [metformin] | did not result in a significant reduction | Pam3CSK-induced TNFα production in the presence of inhibitor (dTHP-1 cells [1]): 387 ± 99 pg/mL |
| C[C@@H]1[C@H](O)[C@@H](C)/C=C/C=C/CC/C=C/C=C/C=C/C=C/C(O[C@H]2O[C@H](C)[C@@H](O)[C@H](N)[C@@H]2O)CC2O[C@](O)(CC(O)C(O)CCC(O)CC(O)CC(O)CC(=O)O[C@H]1C)CC(O)C2C(=O)O (stereo partly shown) [nystatin] | strongly impaired | effect of inhibitor on uptake of TAMRA-labelled DCATH-2 by dTHP-1 cells (dTHP-1 cells [2]): reduced uptake |
| CO[C@H]1C[C@@H]2CC[C@@H](C)[C@@](O)(O2)C(=O)C(=O)N2CCCC[C@H]2C(=O)O[C@H]([C@H](C)C[C@@H]2CC[C@@H](O)[C@H](OC)C2)CC(=O)[C@H](C)/C=C(\C)[C@@H](O)[C@@H](OC)C(=O)[C@H](C)C[C@H](C)/C=C/C=C/C=C/1C [rapamycin] |  | Pam3CSK-induced TNFα production in the presence of inhibitor (dTHP-1 cells [1]): 318 ± 45 pg/mL |
| Cc1ccc(C(=O)Nc2ccc(S(=O)(=O)O)c3cc(S(=O)(=O)O)cc(S(=O)(=O)O)c23)cc1NC(=O)c1cccc(NC(=O)Nc2cccc(C(=O)Nc3cc(C(=O)Nc4ccc(S(=O)(=O)O)c5cc(S(=O)(=O)O)cc(S(=O)(=O)O)c45)ccc3C)c2)c1 [suramin] | completely impaired | effect of inhibitor on uptake of TAMRA-labelled DCATH-2 by dTHP-1 cells (dTHP-1 cells [2]): reduced uptake |
| COC[C@H]1OC(=O)c2coc3c2[C@@]1(C)C1=C(C3=O)[C@@H]2CCC(=O)[C@@]2(C)C[C@H]1OC(C)=O [wortmannin] |  | Pam3CSK-induced TNFα production in the presence of inhibitor (dTHP-1 cells [1]): 354 ± 135 pg/mL |
| LLGDFFRKSKEKIGKEFKRIVQRIKDFLRNLVPRTES [LL-37, human cathelicidin, reference compound] |  | amplification of IL-6 production (dTHP-1 cells [3]): 1.4 fold |
| RFGRFLRKIRRFRPKVTITIQGSARF-NH2 [CATH-2, chicken cathelicidin 2 peptide] |  | amplification of IL-6 production (dTHP-1 cells [3]): 1.8 fold |
